# Experimental data: PMC12767106, “In Situ Assembly of Transformable Monopeptide on Activated Neutrophils Attenuates NETs‐Induced Hepatocellular Carcinoma Metastasis by Disrupting NE Nuclear Translocation” (Advanced Science, 2025)
# Legend:
# resting neutrophils = test: CCK-8 cytotoxicity; type: cell-based, mouse; conditions: CCK-8, 24 h, different dosages
# Protocol: The supernatant was discarded, and the red blood cells were lysed with RBC lysate. The neutrophils were then washed with PBS again, and the supernatant was discarded. The cells were resuspended in culture medium and used for further experiments. […]
# (§1) 10 minutes to remove unbound particles, and the supernatant was collected. […]
# (§2) In vitro cytotoxicity assay
# (§3) The CCK-8 assay was used to assess the cell viability of Hepa1-6/luc, resting neutrophils, and activated neutrophils. Following the seeding of 1*10^4 cells per well on a 96-well plate, the cells were subjected to different dosages of FTP-NPs and NFTP-NPs (medium: DMSO = 99:1 v/v). After 24 hours, the cells were incubated for two hours with 10 µL of CCK-8 solution. Finally, a microplate reader (Tecan Infinite M200, Switzerland) was used to measure cell viability based on the absorbance values.
# (§4) Targeting the capability of NEBP
# (§5) To evaluate the targeting capability of NE-binding peptide (NEBP), the harvested resting neutrophils and […]
# [1] = test system: Hepa1-6/luc murine HCC cells; test: CCK-8 cytotoxicity; type: cell-based, mouse; conditions: CCK-8, 24 h, different dosages
# Protocol: as §1, §2, §3, §4, §5
# [2] = target: T1, NE of activated neutrophils (Mus musculus, UniProt Q3UP87); test: Quantitative analysis of NE activity (NETosis Assay Kit); type: cell-based; conditions: activated neutrophils (PMA), 4 h, NPs 0-200 µM; FTP-NPs result stated at 50 µM
# T1 construct: endogenous in cells
# T1 sequence (Q3UP87 27-265): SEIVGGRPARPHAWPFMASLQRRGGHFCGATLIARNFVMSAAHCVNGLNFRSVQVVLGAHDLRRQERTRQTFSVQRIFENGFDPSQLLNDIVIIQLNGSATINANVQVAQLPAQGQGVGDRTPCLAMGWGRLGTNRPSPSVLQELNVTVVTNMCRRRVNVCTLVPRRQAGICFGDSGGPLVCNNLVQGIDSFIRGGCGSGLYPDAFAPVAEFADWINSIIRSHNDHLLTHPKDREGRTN
# Protocol: Submitted to Advanced Science
# Neutrophil Elastase Activity Assay
# To evaluate the distribution of active NE on the surface and inside of neutrophils, we used a kit (AkrivisBio’s Neutrophil Elastase Activity Assay, MA-0156), seeded neutrophils in confocal microscopy dishes, and then treated them with NFTP-NPs (50 µM, medium: DMSO = 99:1, v/v), FTP-NPs (50 µM, medium: DMSO = 99:1, v/v), PMA+NFTP-NPs (50 µM, medium: DMSO = 99:1, v/v), and PMA+FTP-NPs (50 µM, medium: DMSO = 99:1, v/v) at 37°C. Because the Neutrophil elastase in the kit cleaves a concrete fluorogenic substrate which releases AFC, providing intense fluorescence, 50 μl of MeOSucc-AAPV-AFC mix (Assay Buffer: MeOSucc-AAPV-AFC = 48:2) was added at 4 h, and after incubation for 1 h, the samples were examined by CLSM (LSM980, Zeiss, Germany).
# Quantitative analysis of NE activity […]
# DMSO = 99:1, v/v) for 4 h to obtain the solution.35,36 Quantitative analysis was carried out by a NETosis Assay Kit (Cayman Chemical, USA).
# Quantitative induction analysis of NETs in vitro […]
# According to the manufacturer's instructions, MPO -DNA levels in cultured supernatant were analyzed by an ELISA kit (MEIMIAN, China).38 Briefly, samples were added to each well and incubated with anti -MPO and anti-DNA antibodies for 2 h at room temperature. […] The OD value w as then measured by a microplate
# [3] = test system: mouse red blood cells (RBCs); test: Hemolysis assay; type: cell-based; conditions: 2% RBC suspension in PBS, 1 h, 37 °C, absorbance at 541 nm, triplicate
# Protocol: Hemolysis Assay of FTP-NPs
# To assess the hemolytic activity of FTP-NPs, red blood cells (RBCs) were harvested from C57BL/6 mice (aged 6–8 weeks, female). The mice were euthanized by cervical dislocation, and blood was collected via cardiac puncture into heparinized tubes. Blood was then immediately diluted with an equal volume of phosphate-buffered saline (PBS) and centrifuged at 1500 g for 10 minutes to isolate the RBCs. The supernatant was discarded, and the RBC pellet was washed three times with PBS to remove any residual plasma and other cellular components. The final RBC suspension was adjusted to a 2% hematocrit using PBS. FTP-NPs were synthesized as described previously. Briefly, FTP-NPs were prepared by self-assembly of peptidic […]
# concentration was tested in triplicate. For the hemolysis assay, 200 μL of the 2% RBC suspension was incubated with 200 μL of FTP-NPs at the specified concentrations in a 96-well plate for 1 hour at 37°C under gentle shaking. […] The hemoglobin released into the supernatant was quantified by measuring the absorbance at 541 nm (A541) using a microplate reader. The percentage of hemolysis was calculated using the following formula: Hemolysis %= (Asample−ANC)/ (APC−ANC) *100%. Where Asample is the absorbance of the sample, ANC is the absorbance of the negative control, and APC is the absorbance of the positive control. […]
Substance,survival rate (resting neutrophils),survival rate [1],activity of NE [2],maximum observed hemolysis rate [3]
PpIX-GFFVLK-EAIPMSIPPEVK [FTP-NPs],over 95%,over 95%,almost disappeared,approximately 0.9%
"PpIX-GGGAAK-EAIPMSIPPEVK [NFTP-NPs, nanoparticles of the non-fibrillar transformable control peptide NFTP]",–,–,no significant effect,–
